Test results published in patent publication US6737383B1, “Herbicidal oxadiazolidines” (priority 1999, dated 2004).

Legend:
blackgrass [1] = experiment: Test B pre/postemergence blackgrass; format: in vivo, Alopecurus myosuroides; conditions: for Blackgrass plant response rating (0 to 10 scale): 0 is no effect
Procedure, shortened: (§1)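 Response is a visual 0-to-10 score relative to untreated plants, where 0 means no effect and 10 means complete control, taken twelve to sixteen days after application. Treatments went onto soil at planting and onto foliage of 1- to 4-leaf plants, using a surfactant-containing non-phytotoxic solvent.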

green foxtail = experiment: Test E green foxtail; format: in vivo, Setaria viridis; conditions: Preemergence
Italian ryegrass = experiment: Test E Italian ryegrass; format: in vivo, Lolium multiflorum; conditions: Preemergence
winter barley = experiment: Test E winter barley; format: in vivo, Hordeum vulgare; conditions: Preemergence
crabgrass = experiment: Test B pre/postemergence crabgrass; format: in vivo, Digitaria sanguinalis
Procedure, shortened: as §1

bamyardgrass = experiment: Test B flood test barnyardgrass; format: in vivo, Echinochloa crus-galli
Procedure, shortened: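 Flood test on plants grown to the 2-leaf stage; treated plants kept in greenhouse twelve to sixteen days, then visually rated against controls on a 0 (no effect) to 10 (complete control) scale.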

wild oat = experiment: Test E wild oat; format: in vivo, Avena fatua; conditions: Preemergence; for Plant response rating, Wild oat: 0 to 100 scale where 0 is no effect and 100 is complete control; for Wild oat plant response rating (0 to 100 scale): Rate 250 g/ha
blackgrass [2] = experiment: Test E blackgrass; format: in vivo, Alopecurus myosuroides; conditions: Preemergence
winter wheat [3] = experiment: Test E winter wheat; format: in vivo, Triticum aestivum; conditions: Preemergence
winter wheat [4] = experiment: Test E winter wheat; format: in vivo, Triticum aestivum; conditions: Postemergence
Procedure, shortened: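 Greenhouse test: compounds in non-phytotoxic solvent with surfactant; for postemergence, sprayed on plants at 1- to 4-leaf stage grown in 60:40 sandy loam/potting mix. Injury rated visually against untreated controls after about 21 to 28 days.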

morningglory = experiment: Test B pre/postemergence morningglory; format: in vivo, Ipomoea hederacea; conditions: for Morningglory plant response rating (0 to 10 scale): 0 is no effect
Procedure, shortened: as §1

[5] = Postemergence, Rate 62 g/ha, scale 0 to 10, 0 is no effect, 10 is complete control
[6] = Postemergence, Rate 250 g/ha, scale 0 to 10, 0 no effect, 10 complete control
[7] = Preemergence, Rate 62 g/ha, scale 0 to 10 (0 no effect, 10 complete control)
[8] = Preemergence, Rate 125 g/ha, scale 0 to 10 (0 no effect, 10 complete control)
[9] = Preemergence, Rate 250 g/ha, scale of 0 to 10 where 0 is no effect and 10 is complete control
[10] = Preemergence, Rate 500 g/ha, scale 0 (no effect) to 10 (complete control)
[11] = Rate 125 g/ha, Postemergence, scale 0 to 10, 0 no effect, 10 complete control
[12] = Rate 500 g/ha, Postemergence, scale 0 to 10, 0 no effect, 10 complete control
[13] = Rate 500 g/ha, 0 to 100 scale where 0 is no effect and 100 is complete control
[14] = Rate 1000 g/ha, 0 to 100 scale where 0 is no effect and 100 is complete control
[15] = Rate 1000 g/ha, 0 to 100 scale, 0 is no effect and 100 is complete control
[16] = Rate 500 g/ha, 0 to 100 scale, 0 no effect, 100 complete control
[17] = Postemergence, Rate 125 g/ha, scale of 0 to 10 where 0 is no effect and 10 is complete control
[18] = Preemergence, Rate 62 g/ha, scale of 0 to 10 where 0 is no effect and 10 is complete control
[19] = Preemergence, Rate 125 g/ha, 10 is complete control
[20] = Preemergence, Rate 250 g/ha, scale 0 to 10, 0 is no effect, 10 is complete control
[21] = Preemergence, Rate 500 g/ha, scale 0 to 10 (0 no effect, 10 complete control)
[22] = Rate 62 g/ha, Postemergence, scale of 0 to 10 where 0 is no effect and 10 is complete control
[23] = Rate 250 g/ha, Postemergence, scale 0 to 10, 0 is no effect, 10 is complete control
[24] = Rate 500 g/ha, Postemergence, scale 0 to 10

Compound: Cc1nn(C)c(C)c1-n1c(=O)on(C(=O)N(c2ccc(F)cc2)C(C)C)c1=O [Compound 75]
- Blackgrass plant response rating (blackgrass [1]; [5]): 3
- Blackgrass plant response rating (blackgrass [1]; [6]): 7
- Blackgrass plant response rating (blackgrass [1]; [7]): 0
- Plant response rating, Blackgrass (blackgrass [1]; [8]): 1
- Plant response rating, Blackgrass (blackgrass [1]; [9]): 7
- Blackgrass plant response rating (blackgrass [1]; [10]): 9
- Blackgrass plant response rating (blackgrass [1]; [11]): 5
- Blackgrass plant response rating (blackgrass [1]; [12]): 9
- Plant response rating, Green foxtail (green foxtail; Rate 250 g/ha, 0 to 100 scale): 60
- Plant response rating, Green foxtail (green foxtail; [13]): 60
- Plant response rating, Green foxtail (green foxtail; [14]): 60
- Plant response rating, I. Ryegrass (Italian ryegrass; Rate 250 g/ha, 0 to 100 scale): 20
- Plant response rating, I. Ryegrass (Italian ryegrass; [13]): 30
- Plant response rating, I. Ryegrass (Italian ryegrass; [14]): 50
- Plant response rating, Barley (winter) (winter barley; Rate 250 g/ha, 0 to 100 scale): 10
- Plant response rating, Barley (winter) (winter barley; [13]): 20
- Plant response rating, Barley (winter) (winter barley; [14]): 60
- Crabgrass plant response rating (crabgrass; [5]): 0
- Crabgrass plant response rating (crabgrass; [6]): 9
- Crabgrass plant response rating (crabgrass; [7]): 3
- Plant response rating, Crabgrass (crabgrass; [8]): 8
- Plant response rating, Crabgrass (crabgrass; [9]): 10
- Crabgrass plant response rating (crabgrass; [10]): 10
- Crabgrass plant response rating (crabgrass; [11]): 2
- Crabgrass plant response rating (crabgrass; [12]): 9
- Barnyardgrass plant response rating (bamyardgrass; [5]): 0
- Barnyardgrass plant response rating (bamyardgrass; Rate 125 g/ha, Postemergence section (flood test species), scale 0 to 10, 0 no effect, 10 complete control): 0
- Barnyardgrass plant response rating (bamyardgrass; Rate 500 g/ha, listed under Postemergence (flood test species), scale 0 to 10, 0 no effect, 10 complete control): 0
- Barnyardgrass plant response rating (bamyardgrass; flood test, listed under Postemergence, Rate 250 g/ha, scale 0 to 10, 0 no effect, 10 complete control): 0
- Plant response rating, Wild oat (wild oat; Rate 1000 g/ha): 10
- Plant response rating, Blackgrass (blackgrass [2]; Rate 250 g/ha, 0 to 100 scale): 20
- Plant response rating, Blackgrass (blackgrass [2]; [13]): 40
- Plant response rating, Blackgrass (blackgrass [2]; [14]): 85
- Plant response rating, Wheat (winter) (winter wheat [3]; Rate 250 g/ha, 0 to 100 scale): 10
- Plant response rating, Wheat (winter) (winter wheat [3]; [13]): 20
- Plant response rating, Wheat (winter) (winter wheat [3]; [14]): 65
- Plant response rating, Wheat (winter) (winter wheat [4]; Rate 250 g/ha, 0 to 100 scale (0 no effect, 100 complete control)): 60
- Plant response rating, Wheat (winter) (winter wheat [4]; [15]): 70
- Plant response rating, Wheat (winter) (winter wheat [4]; [16]): 75
- Morningglory plant response rating (morningglory; [5]): 1
- Morningglory plant response rating (morningglory; [6]): 1
- Morningglory plant response rating (morningglory; [7]): 0
- Plant response rating, Morningglory (morningglory; [8]): 0
- Plant response rating, Morningglory (morningglory; [9]): 0
- Morningglory plant response rating (morningglory; [10]): 2
- Morningglory plant response rating (morningglory; [11]): 1
- Morningglory plant response rating (morningglory; [12]): 3

Compound: CC(C)N(C(=O)n1oc(=O)n(CC(F)(F)F)c1=O)c1ccc(F)cc1 [Compound 163]
- Blackgrass plant response rating (blackgrass [1]; [17]): 4
- Blackgrass plant response rating (blackgrass [1]; [18]): 7
- Blackgrass plant response rating (0 to 10 scale) (blackgrass [1]; [19]): 7
- Blackgrass plant response rating (blackgrass [1]; [20]): 10
- Blackgrass plant response rating (blackgrass [1]; [21]): 10
- Blackgrass plant response rating (blackgrass [1]; [22]): 2
- Plant response rating, Blackgrass (blackgrass [1]; [23]): 6
- Blackgrass plant response rating (blackgrass [1]; [24]): 8
- Green foxtail plant response rating (0 to 100 scale) (green foxtail; Rate 250 g/ha): 100
- Plant response rating, Green foxtail (green foxtail; [13]): 100
- Plant response rating, Green foxtail (green foxtail; [14]): 100
- I. Ryegrass plant response rating (0 to 100 scale) (Italian ryegrass; Rate 250 g/ha): 30
- Plant response rating, I. Ryegrass (Italian ryegrass; [13]): 50
- Plant response rating, I. Ryegrass (Italian ryegrass; [14]): 60
- Barley (winter) plant response rating (0 to 100 scale) (winter barley; Rate 250 g/ha): 30
- Plant response rating, Barley (winter) (winter barley; [13]): 40
- Plant response rating, Barley (winter) (winter barley; [14]): 50
- Crabgrass plant response rating (crabgrass; [17]): 7
- Crabgrass plant response rating (crabgrass; [18]): 8
- Crabgrass plant response rating (crabgrass; [20]): 8
- Crabgrass plant response rating (crabgrass; [21]): 9
- Crabgrass plant response rating (crabgrass; [22]): 6
- Plant response rating, Crabgrass (crabgrass; [23]): 8
- Crabgrass plant response rating (crabgrass; [24]): 9
- Wild oat plant response rating (0 to 100 scale) (wild oat): 50
- Plant response rating, Wild oat (wild oat; Rate 500 g/ha): 60
- Plant response rating, Wild oat (wild oat; Rate 1000 g/ha): 70
- Blackgrass plant response rating (0 to 100 scale) (blackgrass [2]; Rate 250 g/ha): 30
- Plant response rating, Blackgrass (blackgrass [2]; [13]): 40
- Plant response rating, Blackgrass (blackgrass [2]; [14]): 50
- Wheat (winter) plant response rating (0 to 100 scale) (winter wheat [3]; Rate 250 g/ha): 30
- Plant response rating, Wheat (winter) (winter wheat [3]; [14]): 55
- Plant response rating, Wheat (winter) (winter wheat [4]; [15]): 70
- Plant response rating, Wheat (winter) (winter wheat [4]; [16]): 50
- Wheat (winter) plant response rating (winter wheat [4]; Rate 250 g/ha, 0 to 100 scale where 0 is no effect and 100 is complete control): 40
- Morningglory plant response rating (morningglory; [17]): 2
- Morningglory plant response rating (morningglory; [18]): 0
- Morningglory plant response rating (0 to 10 scale) (morningglory; [19]): 0
- Morningglory plant response rating (morningglory; [20]): 0
- Morningglory plant response rating (morningglory; [21]): 0
- Morningglory plant response rating (morningglory; [22]): 2
- Plant response rating, Morningglory (morningglory; [23]): 5
- Morningglory plant response rating (morningglory; [24]): 8

Compound: CC1CCCCC1n1c(=O)on(C(=O)N(c2ccc(F)cc2F)C(C)C)c1=O (centres unmarked) [Compound 172]
- Blackgrass plant response rating (blackgrass [1]; [17]): 0
- Blackgrass plant response rating (blackgrass [1]; [18]): 0
- Blackgrass plant response rating (0 to 10 scale) (blackgrass [1]; [19]): 0
- Blackgrass plant response rating (blackgrass [1]; [20]): 3
- Blackgrass plant response rating (blackgrass [1]; [21]): 3
- Blackgrass plant response rating (blackgrass [1]; [22]): 0
- Plant response rating, Blackgrass (blackgrass [1]; [23]): 5
- Blackgrass plant response rating (blackgrass [1]; [24]): 5
- Green foxtail plant response rating (0 to 100 scale) (green foxtail; Rate 250 g/ha): 60
- Plant response rating, Green foxtail (green foxtail; [13]): 85
- Plant response rating, Green foxtail (green foxtail; [14]): 100
- I. Ryegrass plant response rating (0 to 100 scale) (Italian ryegrass; Rate 250 g/ha): 30
- Plant response rating, I. Ryegrass (Italian ryegrass; [13]): 65
- Plant response rating, I. Ryegrass (Italian ryegrass; [14]): 80
- Barley (winter) plant response rating (0 to 100 scale) (winter barley; Rate 250 g/ha): 40
- Plant response rating, Barley (winter) (winter barley; [13]): 40
- Plant response rating, Barley (winter) (winter barley; [14]): 20
- Crabgrass plant response rating (crabgrass; [17]): 3
- Crabgrass plant response rating (crabgrass; [18]): 7
- Crabgrass plant response rating (0 to 10 scale) (crabgrass; Preemergence, Rate 125 g/ha, 0 is no effect, 10 is complete control): 8
- Crabgrass plant response rating (crabgrass; [20]): 10
- Crabgrass plant response rating (crabgrass; [21]): 10
- Crabgrass plant response rating (crabgrass; [22]): 0
- Plant response rating, Crabgrass (crabgrass; [23]): 9
- Crabgrass plant response rating (crabgrass; [24]): 9
- Wild oat plant response rating (0 to 100 scale) (wild oat): 30
- Plant response rating, Wild oat (wild oat; Rate 500 g/ha): 40
- Plant response rating, Wild oat (wild oat; Rate 1000 g/ha): 50
- Blackgrass plant response rating (0 to 100 scale) (blackgrass [2]; Rate 250 g/ha): 50
- Plant response rating, Blackgrass (blackgrass [2]; [13]): 60
- Plant response rating, Blackgrass (blackgrass [2]; [14]): 80
- Wheat (winter) plant response rating (0 to 100 scale) (winter wheat [3]; Rate 250 g/ha): 10
- Plant response rating, Wheat (winter) (winter wheat [3]; [13]): 20
- Plant response rating, Wheat (winter) (winter wheat [3]; [14]): 30
- Plant response rating, Wheat (winter) (winter wheat [4]; [15]): 50
- Plant response rating, Wheat (winter) (winter wheat [4]; Rate 500 g/ha, 0 to 100 scale, 0 is no effect, 100 is complete control): 40
- Morningglory plant response rating (morningglory; [17]): 5
- Morningglory plant response rating (morningglory; [18]): 0
- Morningglory plant response rating (0 to 10 scale) (morningglory; [19]): 0
- Morningglory plant response rating (morningglory; [20]): 0
- Morningglory plant response rating (morningglory; [21]): 0
- Morningglory plant response rating (morningglory; [22]): 2
- Plant response rating, Morningglory (morningglory; [23]): 5
- Morningglory plant response rating (morningglory; [24]): 8
